Data taken from PubChem BioAssay AID1963850 (Molecular Pharmacology Branch, DTP, NCI, 2024).

System: 192522-019-R-J2-PDC complex tumor spheroid viability
Assay: Anticancer human tumor 192522-019-R-J2-PDC patient-derived colon adenocarcinoma cell line growth inhibition [POLQ]
Settings: for IC50: curve of first compound; for viability, T/C: stronger effect = lower value
Experimental: Multicellular complex tumor spheroid response to Polymerase (POL) inhibitors (novobiocin, ART-558, RP6685) in combination with a variety of drugs and investigational agents in selected tumor cell lines
The POL inhibitors (novobiocin, ART-558, and RP6685) were evaluated both individually and in combination with standard of care and investigational anticancer small molecules within a complex spheroid model of solid tumors. . Complex spheroids include a stromal component modeled by human endothelial cells (HUVEC) and fibroblasts modeled by human mesenchymal stem cells (MSCs). The concentration ranges selected for each drug and investigational agent were based upon clinically achievable concentrations if the clinical Cmax of the agent was known.
Compounds. The drugs and investigational agents: novobiocin (NSC847541), ART-558 (NSC835418), RP-6685 (NSC848927), peposertib (NSC802822), ceralasertib (NSC780249), elimusertib (NSC800525), camonsertib (NSC841442), AZD-1390 (NSC803789), olaparib (NSC753686), talazoparib (NSC767125), rucaparib (NSC756644), sotorasib (NSC818433), MRTX-1133 (NSC836407), SN-38 (NSC673596), topotecan (NSC609699), epotoside (NSC141540), doxorubicin (NSC123127), gemcitabine (NSC613327), 5-fluorouracil (NSC19893), paclitaxel (NSC125973), vemurafenib (NSC761431), MSA-2 (NSC828583), SN-011 (NSC837082), adavosertib (NSC754352), prexasertib (NSC758257), carboplatin (NSC241240) and oxaliplatin (NSC266046), were obtained from the National Cancer Institute (NCI) Developmental Therapeutics Program Chemical Repository (21). The FDA-approved anticancer drug set is available from the Developmental Therapeutics Program at https://dtp.cancer.gov/organization/dscb/obtaining/. […] The stock solutions were prepared in dimethyl sulfoxide (DMSO, Sigma-Aldrich, St. Louis, MO, cat. D2650), except for the platinum compounds which were prepared in saline (Quality Biological, Gaithersburg, MD, cat. 114-055-101), at 800-fold the tested concentration and stored at -70 degrees C prior to their use. All drugs and investigational agents were tested over a range starting from a high concentration at or near the clinical Cmax and decreasing in half-log increments. If the clinical Cmax for an agent had not been determined, the highest concentration tested was 10 microM, except for SN-38, which was tested at a high concentration of 1 microM.
Cell Culture. All cells were maintained in an incubator at 37 degrees C and 5% CO2 with 95% humidity. The PDC lines were cultured according to standard operating procedures established by the NCI PDMR (https://pdmr.cancer.gov). Table 3 of the manuscript, lists the cell lines along with the number of the three cell types plated to form the mct-spheroids and media for tumor cell growth. After thawing, all PDC lines, except 997537-175-T-J1-PDC and 415267-285-R-J2-PDC, were cultured in Matrigel-coated flasks prepared with a working solution of 1X Ham's F-12 nutrient mix, without supplementation (Thermo Fisher Scientific, cat. 11765054), 100 U/mL penicillin-streptomycin (Thermo Fisher Scientific, cat. 15140122), and 2.5% Matrigel (Corning Inc., Corning, NY, cat. 354248) for the first three passages. The two PDC lines 997537-175-T-J1-PDC and 415267-285-R-J2-PDC were cultured on uncoated flasks. The 857933-349-R-J2-PDC line was cultured in 6C/Colon 1B media containing advanced DMEM/F-12 (Thermo Fisher Scientific, cat. 12634028), 10 mM HEPES (Thermo Fisher Scientific, cat. 15630080), 1X GlutaMAX supplement (Thermo Fisher Scientific, cat. 35050061), 0.1 mg/mL primocin (InvivoGen, San Diego, CA, cat. ant-pm-2), 10% defined fetal bovine serum, heat inactivated (HyClone Laboratories Inc., Logan, UT, cat. SH30070.03HI), 50% L-WRN conditioned media (ATCC, cat. CRL-3276), 1.25 mM N-Acetyl-L-cysteine (Sigma-Aldrich, cat. A9165), 10 mM nicotinamide (Sigma-Aldrich, cat. N0636), 1X B-27 supplement (Thermo Fisher Scientific, cat. 17504044), 1X N-2 supplement (Thermo Fisher Scientific, cat. […]

[1] = second compound 0.0316 µM, first compound 0.0316 µM
[2] = second compound 0.0316 µM, first compound 0.1 µM
[3] = second compound 0.1 µM, first compound 0.0316 µM
[4] = second compound 0.1 µM, first compound 0.1 µM
[5] = second compound 0.316 µM, first compound 0.0316 µM
[6] = second compound 0.316 µM, first compound 0.1 µM
[7] = second compound 1 µM, first compound 0.0316 µM
[8] = second compound 1 µM, first compound 0.1 µM
[9] = second compound 3.16 µM, first compound 0.0316 µM
[10] = second compound 3.16 µM, first compound 0.1 µM
[11] = second compound 10 µM, first compound 0.0316 µM
[12] = second compound 10 µM, first compound 0.1 µM
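Note: spheroids exposed to drugs for seven days before reading.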
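Throughout, for viability, T/C: 100% = DMSO vehicle control viability in luminescence.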

With `Cn1ncnc1[C@H]1c2n[nH]c(=O)c3cc(F)cc(c23)N[C@@H]1c1ccc(F)cc1` + Nc1ccc(C#CCN(C(=O)Cc2ncc(C(F)(F)F)cc2C(F)(F)F)c2ccc(F)cc2)nn1 the IC50 (second compound 0.0316 µM) was over 0.1 µM, the IC50 (second compound 0.1 µM) was over 0.1 µM and the IC50 (second compound 0.316 µM) was over 0.1 µM. It also gave an IC50 (second compound 1 µM) of over 0.1 µM, an IC50 (second compound 3.16 µM) of over 0.1 µM and an IC50 (second compound 10 µM) of over 0.1 µM. The viability, T/C (second compound 0.0316 µM, first compound 0.000316 µM) was 101%, the viability, T/C (second compound 0.0316 µM, first compound 0.001 µM) was 108% and the viability, T/C (second compound 0.0316 µM, first compound 0.00316 µM) was 101%. The viability, T/C (second compound 0.0316 µM, first compound 0.01 µM) was 104%, the viability, T/C [1] was 99.4% and the viability, T/C [2] was 98.9%. For the same compound, the viability, T/C (second compound 0.1 µM, first compound 0.000316 µM) was 108%, the viability, T/C (second compound 0.1 µM, first compound 0.001 µM) was 100% and the viability, T/C (second compound 0.1 µM, first compound 0.00316 µM) was 107%. For the same compound, the viability, T/C (second compound 0.1 µM, first compound 0.01 µM) was 110%, the viability, T/C [3] was 113% and the viability, T/C [4] was 91.4%. It also gave a viability, T/C (second compound 0.316 µM, first compound 0.000316 µM) of 107%, a viability, T/C (second compound 0.316 µM, first compound 0.001 µM) of 95.4% and a viability, T/C (second compound 0.316 µM, first compound 0.00316 µM) of 97.9%. The viability, T/C (second compound 0.316 µM, first compound 0.01 µM) was 108%, the viability, T/C [5] was 111% and the viability, T/C [6] was 102%. For the same compound, the viability, T/C (second compound 1 µM, first compound 0.000316 µM) was 119%, the viability, T/C (second compound 1 µM, first compound 0.001 µM) was 109% and the viability, T/C (second compound 1 µM, first compound 0.00316 µM) was 102%. The viability, T/C (second compound 1 µM, first compound 0.01 µM) was 99.9%, the viability, T/C [7] was 105% and the viability, T/C [8] was 114%. It also gave a viability, T/C (second compound 3.16 µM, first compound 0.000316 µM) of 102%, a viability, T/C (second compound 3.16 µM, first compound 0.001 µM) of 107% and a viability, T/C (second compound 3.16 µM, first compound 0.00316 µM) of 109%. The viability, T/C (second compound 3.16 µM, first compound 0.01 µM) was 106%, the viability, T/C [9] was 105% and the viability, T/C [10] was 104%. For the same compound, the viability, T/C (second compound 10 µM, first compound 0.000316 µM) was 108%, the viability, T/C (second compound 10 µM, first compound 0.001 µM) was 114% and the viability, T/C (second compound 10 µM, first compound 0.00316 µM) was 109%. For the same compound, the viability, T/C (second compound 10 µM, first compound 0.01 µM) was 99.2%, the viability, T/C [11] was 99.2% and the viability, T/C [12] was 107%.
With `O=C(Nc1ccc(O)c(NS(=O)(=O)c2ccc(F)cc2)c1)c1ccc(-c2ccccc2)cc1` + Nc1ccc(C#CCN(C(=O)Cc2ncc(C(F)(F)F)cc2C(F)(F)F)c2ccc(F)cc2)nn1 the IC50 (second compound 0.0316 µM) was over 10 µM, the IC50 (second compound 0.1 µM) was over 10 µM and the IC50 (second compound 0.316 µM) was over 10 µM. It also gave an IC50 (second compound 1 µM) of over 10 µM, an IC50 (second compound 3.16 µM) of over 10 µM and an IC50 (second compound 10 µM) of over 10 µM. It also gave a viability, T/C [1] of 104%, a viability, T/C [2] of 101% and a viability, T/C (second compound 0.0316 µM, first compound 0.316 µM) of 94.6%. For the same compound, the viability, T/C (second compound 0.0316 µM, first compound 1 µM) was 99.2%, the viability, T/C (second compound 0.0316 µM, first compound 3.16 µM) was 104% and the viability, T/C (second compound 0.0316 µM, first compound 10 µM) was 98.3%. For the same compound, the viability, T/C [3] was 109%, the viability, T/C [4] was 103% and the viability, T/C (second compound 0.1 µM, first compound 0.316 µM) was 94%. The viability, T/C (second compound 0.1 µM, first compound 1 µM) was 87.9%, the viability, T/C (second compound 0.1 µM, first compound 3.16 µM) was 102% and the viability, T/C (second compound 0.1 µM, first compound 10 µM) was 103%. It also gave a viability, T/C [5] of 97.2%, a viability, T/C [6] of 101% and a viability, T/C (second compound 0.316 µM, first compound 0.316 µM) of 94.9%. For the same compound, the viability, T/C (second compound 0.316 µM, first compound 1 µM) was 105%, the viability, T/C (second compound 0.316 µM, first compound 3.16 µM) was 105% and the viability, T/C (second compound 0.316 µM, first compound 10 µM) was 100%. It also gave a viability, T/C [7] of 110%, a viability, T/C [8] of 98.2% and a viability, T/C (second compound 1 µM, first compound 0.316 µM) of 97.5%. It also gave a viability, T/C (second compound 1 µM, first compound 1 µM) of 91.6%, a viability, T/C (second compound 1 µM, first compound 3.16 µM) of 101% and a viability, T/C (second compound 1 µM, first compound 10 µM) of 102%. For the same compound, the viability, T/C [9] was 99.4%, the viability, T/C [10] was 106% and the viability, T/C (second compound 3.16 µM, first compound 0.316 µM) was 102%. For the same compound, the viability, T/C (second compound 3.16 µM, first compound 1 µM) was 110%, the viability, T/C (second compound 3.16 µM, first compound 3.16 µM) was 107% and the viability, T/C (second compound 3.16 µM, first compound 10 µM) was 111%. The viability, T/C [11] was 103%, the viability, T/C [12] was 103% and the viability, T/C (second compound 10 µM, first compound 0.316 µM) was 109%. The viability, T/C (second compound 10 µM, first compound 1 µM) was 107%, the viability, T/C (second compound 10 µM, first compound 3.16 µM) was 111% and the viability, T/C (second compound 10 µM, first compound 10 µM) was 103%.
